{"source": "patent US20050132430A1", "about": "“Igamete recruitment and developmental competence in mammals by inhibiting the de-nova sterol biosynthesis and/or promoting sterol efflux” (priority 2001, published 2005)", "key": {"[1]": {"tested_on": "mouse cumulus enclosed oocytes (CEO)", "assay": "IVF fertilisation of cumulus enclosed oocytes after IVM with a statin", "type": "cell-based", "experimental": "Mouse oocytes were isolated and cultured according to descriptions in example 3 but for a single deviation in that the IVM culture medium was further supplemented with 1 mg/mL Fetuin (Sigma F-3385, Sigma, U.S.A.). […] The ethanol was necessary in order to dissolve Mevinolin in the medium. After in vitro maturation for 22 h, oocytes were transferred to a fertilisationn medium consisting of minimal essential medium (MEM) (21090-022, Gibco BRL, Scotland), 200 mM L-glutamine (Gibco BRL, Scotland), 20000 IU/L penicillin (Gibco BRL, Scotland), 20000 IU/L streptomycin (Gibco BRL, Scotland), 3 mg/ml BSA (Sigma A-7030, Sigma-Aldrich, Denmark), 2.3 mM sodium pyruvate (S-8636, Sigma), 10 mM ethylen diamine tetra acetic acid (EDTA, Merck 1.08418.0250) and 1 mg/mL Fetuin (Sigma F-3385, Sigma, U.S.A.). Prior to oocyte transfer into the fertilisation medium, mouse sperm for IVF was obtained the following way: A 6-9 month old C57 black×DBA 2 F1 male mouse (M&B A/S, Ry, Denmark) was killed and the epididymis prepared in physiological saline. Thereafter, the epididymis were cut in small pieces and the bulk material was transferred to four 1-mL culture well containing the 800 μL IVF-medium described above and subsequently placed in an incubator (37° C., 95% atmospheric air: 5% CO2). After 1.5 hours of incubation, 300 μL of the upper liquid phase of each of the four wells was aspirated and transferred to a new glass-vial. The resulting pool of motile sperm was counted in a counting chamber and 50000 motile sperm cells was added each oocyte culture. […] These oocytes were left for another 48 hours and subsequently counted according to the maturational status of the oocyte or the progression of the fertilised zygote, i.e. GV-oocytes, GVBD-oocytes, PB-oocytes, PB^2-oocytes (oocytes with a visible second polar body), 2-cells, 3-4-cells, 4+ cells (zygotes with more than 4 blastomeres) and degenerated cells (usually granulated or cells with extensive plasma-membrane ondulation)."}, "[2]": {"tested_on": "C57 black×DBA 2 F1 female mice", "assay": "Number of 2-cells in tuba of gonadotropin-stimulated female mice after statin administration and mating", "type": "in vivo, mouse", "details": "for No. of 2-cells in mated animals: pre-pubertal, Gnrh 12 I.U., hCG 10 I.U.", "experimental": "Prepubertal C57 black×DBA 2 F1 female mice (M&B A/S, Ry, Denmark) were stimulated to super-ovulation (11 a.m. at day 0) by i.p. Injections of 12 IU Menogon® (Ferring, Denmark) in 200 μL H2O. […] Half of the mice were given additional Injections of 1.6 mg lovastatin, by dissolving a tablet of Mevacor® (Merck Sharp and Dohme, NL) containing 40 mg lovastatin in 5 ml PBS and injecting 200 μL of the resulting slurry i.p. at three consecutive days, beginning at day 0. […] The mice were caged individually one hour later with a mature male mouse of the same strain and supplier (1 male per female). Female and male mice were separated at 9 a.m. at day 3, females were left alone for another 48 h. After killing of the females and dissection of the tuba ovarii, 2-cells were flushed into a plastic dish with culture medium (see later) by mounting a glass pipette in one end of the isolated tuba and blowing by mouth through a filter. The total number of 2-cells flushed per mouse were hereafter counted. The 2-cells were subsequently cultured in Universal IVF-medium (Medicult, Denmark) in an incubator (37° C., 95% atmospheric air, 5% CO2) in 4-well dishes (Nunclon 176740, Nunc, Denmark). After 4 days of culture, wells were scored and numbers of morula, blastocyst or degenerated entities were determined by use of a microscope:\nPrepubertal C57 black×DBA 2 F1 female mice (M&B A/S, Ry, Denmark) were treated as in example 1 but for a few deviations. […] In experiment B the dose of statins was decreased to 3×100 μg/animal and administered as in example 1. […] In experiment D the dose of gonadotropins were decreased gradually whereas the dose of statins was administered as in example 1."}, "[3]": {"tested_on": "gonadotrophin primed prepubertal mouse ovaries", "assay": "Free cholesterol, FF-MAS and progesterone in ovaries of gonadotrophin primed prepubertal mice (HPLC)", "type": "in vivo", "details": "statin treatment on top of hCG", "experimental": "Ovaries were isolated pair-wise, weighed, freeze-dried, weighed again and subsequently extracted in 1.0 ml (v/v) 75% n-heptane: 25% isopropanol. […] Eluted material was detected by ultraviolet light absorption between 200-300 nm. […] Standards for cholesterol (Steraloids […]) and P4 (Sigma P-0130) were obtained commercially whereas the FF-MAS standards used was produced in the laboratory as described before (Baltsen et al., 1999)."}, "[4]": {"tested_on": "motile cell fraction of epididymis", "assay": "C/PL-ratio in motile cell fraction of epididymis after statin administration", "type": "in vivo, mouse", "details": "3 i.p. injections of 1.0 mg lovastatin per 30 g body weight, male mice", "protocol": "Post-pubertal C57 black×DBA 2 F1 male mice (M&B A/S, Ry, Denmark) are used. Four mice are given 3 i.p. injections of 1.0 mg lovastatin per 30 g body weight by dissolving a tablet of Mevacor® (Merck Sharp and Dohme, NL) containing 40 mg lovastatin in 8 ml PBS and injecting 200 μL of the resulting slurry i.p. at 1 p.m. at day-6, -3 and -1, counting the day of epididymal sperm harvest as day 0. […] At 10 a.m on day 0 all mice are killed and the epididymis are prepared in physiological saline. Thereafter, the epididymis are transferred to a 1-mL culture well containing MEM (Gibco BRL, Scotland) supplemented with 2.3 mM pyruvate, 200 mM L-glutamine (Gibco BRL, Scotland), 20000 IU/L penicillin (Gibco BRL, Scotland), 20000 IU/L streptomycin (Gibco BRL, Scotland) and 0.2 mg/ml BSA (Sigma A-7030, Sigma-Aldrich, Denmark) and placed in an incubator (37° C., 95% atmospheric air: 5% CO2).\nAfter 1.5 hours of incubation, the upper liquid phase is aspirated and transferred to a new glass-vial and centrifuged. […] One half is subjected to sterol analysis as designated in the examples above and the total sterol content is calculated to consist of cholesterol, desmosterol, cholesta-7,24-dien-3β-ol, T-MAS and lanosterol. […] The C/PL-ratio is calculated for each individual animal."}, "[5]": {"tested_on": "C57 black×DBA 2 F1 male mice", "assay": "Sperm quality in mice after statin administration", "type": "in vivo, mouse", "details": "statin administration as in example 6", "experimental": "The set-up involves the same animals and statin administration as in example 6. The animals are analysed by methods that are developed in order to evaluate the fertilising potential and sperm quality."}, "[6]": {"tested_on": "C57 black×DBA 2 F1 female mice", "assay": "Number of 2-cells in tuba of gonadotropin-stimulated female mice after statin administration and mating", "type": "in vivo, mouse"}, "[7]": {"tested_on": "patients with type II hyperlipoprotelnemia", "details": "oral 40 mg daily for 4 months vs dietary management alone; cited from earlier work"}, "naked mouse oocytes (NO)": {"tested_on": "naked mouse oocytes (NO)", "assay": "IVF fertilisation of naked oocytes after IVM with cyclodextrin", "type": "cell-based", "text": "Mouse oocytes were isolated and cultured according to descriptions in […]. The NOs were divided into […] groups and cultured in dishes containing medium added either 0%o, 0.5%o, 2.0%o or 5%o hydroxypropyl-cyclodextrin (ICN 153540, ICN Ohio, U.S.A.). IVM and IVF conditions were the same as in example 6."}}, "data": [{"molecule": "Mevinolin", "values": [{"measurement": "fraction of fertilised oocytes (PB2-oocytes to 4+ cells) after IVF", "setting": "[1]; 10 μM statin in IVM-medium 22 h, vs control and 7.5 I.U./L FSH", "value": "increased"}, {"measurement": "state of development after 72 hours of embryo culture", "setting": "[1]; vs control and FSH groups", "value": "more progressed state"}, {"measurement": "cumulus expansion after the IVM culture period", "setting": "[1]; vs control oocytes", "value": "extensive cumulus expansion"}]}, {"molecule": "CC[C@H](C)C(=O)O[C@H]1C[C@@H](C)C=C2C=C[C@H](C)[C@H](CC[C@@H]3C[C@@H](O)CC(=O)O3)[C@H]21", "note": "[Mevacor, lovastatin]", "values": [{"measurement": "development of cultured 2-cells into blastocysts, recovery rates", "setting": "[2]; 2-cells cultured in vitro 4 days", "value": "indiscriminate to controls"}, {"measurement": "number of 2-cells per animal", "setting": "[2]; 3×1.6 mg statin i.p. during follicular phase maturation, vs control", "value": "increased significantly"}, {"measurement": "No. of 2-cells in mated animals", "setting": "[2]; Exp. A, 100 μg single, ovulation", "value": "27.5 ± 3.5"}, {"measurement": "No. of 2-cells in mated animals", "setting": "[2]; Exp. A, 1000 μg single, ovulation", "value": "15.3 ± 7.3"}, {"measurement": "No. of 2-cells in mated animals", "setting": "[2]; Exp. B, 100 μg single, ovulation", "value": "19.3 ± 4.1"}, {"measurement": "No. of 2-cells in mated animals", "setting": "[2]; Exp. B, 3 × 100 μg multi, follicular phase", "value": "6.5 ± 1.0"}, {"measurement": "more 2-cells as compared to mice stimulated with hormone alone", "setting": "[2]; hormone stimulated prepubertal female mice, average, FIG. 5", "value": "about 70%"}, {"measurement": "LH/hCG induced accumulation of FF-MAS", "setting": "[3]", "value": "completely blocks"}, {"measurement": "extent of progesterone (steroid) production", "setting": "[3]", "value": "not influenced"}, {"measurement": "tendency of decreasing tissue density of free cholesterol in the ovaries after hCG stimulation", "setting": "[3]", "value": "pronounced"}, {"measurement": "C/PL-ratios vs control group", "setting": "[4]", "value": "lower"}, {"measurement": "fertilising potential and sperm quality vs control animals", "setting": "[5]", "value": "fertility premium"}, {"measurement": "No. of 2-cells in mated animals", "setting": "[6]; Exp. C, mature cycling, Gnrh 12 I.U., 3 × 1.0 mg multi, follicular phase", "value": "11.4 ± 2.9"}, {"measurement": "No. of 2-cells in mated animals", "setting": "[6]; Exp. C, mature cycling, Gnrh 15 I.U., hCG 10 I.U., 1.0 mg single, ovulation", "value": "16.8 ± 3.4"}, {"measurement": "No. of 2-cells in mated animals", "setting": "[6]; Exp. D, pre-pubertal, Gnrh 4 I.U., hCG 5 I.U., 3 × 1.0 mg multi, follicular phase", "value": 5}, {"measurement": "sperm motility", "setting": "[7]", "value": "small but statistically significant reduction"}]}, {"molecule": "CC(O)COC[C@H]1O[C@@H]2O[C@H]3[C@H](O)[C@@H](O)[C@@H](O[C@H]4[C@H](O)[C@@H](O)[C@@H](O[C@H]5[C@H](O)[C@@H](O)[C@@H](O[C@H]6[C@H](O)[C@@H](O)[C@@H](O[C@H]7[C@H](O)[C@@H](O)[C@@H](O[C@H]8[C@H](O)[C@@H](O)[C@@H](O[C@H]1[C@H](O)[C@H]2O)O[C@@H]8COCC(C)O)O[C@@H]7COCC(C)O)O[C@@H]6COCC(C)O)O[C@@H]5COCC(C)O)O[C@@H]4COCC(C)O)O[C@@H]3COCC(C)O", "note": "(stereo partly drawn) [hydroxypropyl-beta-cyclodextrin, hydroxypropyl-β-cyclodextrin]", "values": [{"measurement": "fraction of fertilised oocytes (PB2-oocytes to 4+ cells) after IVF", "setting": "naked mouse oocytes (NO); 0.5, 2.0 or 5 per mille in IVM-medium of NOs vs control", "value": "increased"}, {"measurement": "rate of degeneration", "setting": "naked mouse oocytes (NO); cyclodextrin in the IVM-medium", "value": "not affected"}]}]}
